According to ChEMBL document CHEMBL2440042, “Anti-proliferative activity of hydnocarpin, a natural lignan, is associated with the suppression of Wnt/β-catenin signaling pathway in colon cancer cells” (Bioorg Med Chem Lett, 2013):
Active and inactive are the calls of the source. No cut-off for these calls is given here.

Columns and labels:
SW480 [1] = test: Inhibition of Wnt/beta-catenin signaling pathway in human SW480 cells assessed as beta-catenin protein expression at 5 uM after 12 hrs by Western blotting analysis relative to vehicle-treated control
SW480 [2] = test: Effect on total beta-catenin protein level in human SW480 cells at 5 to 20 uM after 12 to 24 hrs by Western blotting analysis relative to vehicle-treated control; type: functional, cell-based
HEK293 = test: Inhibition of Wnt/beta-catenin signaling pathway in human HEK293 cells at 20 uM after 24 hrs by dual luciferase reporter gene assay relative to vehicle-treated control; conditions: HEK293, 24 h
SW480 [3] = test: Inhibition of Wnt/beta-catenin signaling pathway in human SW480 cells assessed as increase in phosphorylation of beta-catenin at Ser45 after 12 hrs by Western blotting analysis relative to vehicle-treated control; type: cell-based
SW480 [4] = test: Inhibition of Wnt/beta-catenin signaling pathway in human SW480 cells assessed as increase in phosphorylation of beta-catenin at Ser45 at 10 uM after 12 hrs by Western blotting analysis relative to vehicle-treated control
SW480 [5] = test: Inhibition of Wnt/beta-catenin signaling pathway in human SW480 cells assessed as dvl1 protein expression at 5 uM after 12 hrs by Western blotting analysis relative to vehicle-treated control
SW480 [6] = test: Inhibition of Wnt/beta-catenin signaling pathway in human SW480 cells assessed as dvl2 protein expression at 20 uM after 12 hrs by Western blotting analysis relative to vehicle-treated control
SW480 [7] = test: Inhibition of Wnt/beta-catenin signaling pathway in human SW480 cells assessed as dvl3 protein expression at 5 uM after 12 hrs by Western blotting analysis relative to vehicle-treated control
SW480 [8] = test: Inhibition of Wnt/beta-catenin signaling pathway in human SW480 cells assessed as dvl3 protein expression at 10 uM after 12 hrs by Western blotting analysis relative to vehicle-treated control
SW480 [9] = test: Inhibition of Wnt/beta-catenin signaling pathway in human SW480 cells assessed as dvl3 protein expression at 20 uM after 12 hrs by Western blotting analysis relative to vehicle-treated control
SW480 [10] = test: Inhibition of Wnt/beta-catenin signaling pathway in human SW480 cells assessed as Axin2 protein expression at 10 uM after 24 hrs by Immunoblotting analysis relative to vehicle-treated control
SW480 [11] = test: Inhibition of Wnt/beta-catenin signaling pathway in human SW480 cells assessed as beta-catenin protein expression at 5 uM after 24 hrs by Immunoblotting analysis relative to vehicle-treated control
SW480 [12] = test: Growth inhibition in human SW480 cells at 1 to 20 uM after 72 hrs by SRB assay in presence of axin1 siRNA; type: functional, cell-based
[13] = target: Axin1/beta-catenin (Homo sapiens) (UniProt P35222+O15169); test: Increase in axin1-beta-catenin interaction in human SW480 cells at 5 to 10 uM after 24 hrs by immunoprecipitation; type: cell-based
SW480 [14] = test: Inhibition of Wnt/beta-catenin signaling pathway in human SW480 cells assessed as Axin2 protein expression at 5 uM after 24 hrs by Immunoblotting analysis relative to vehicle-treated control
SW480 [15] = test: Inhibition of Wnt/beta-catenin signaling pathway in human SW480 cells assessed as CK1-alpha protein expression at 10 uM after 12 hrs by Western blotting analysis relative to vehicle-treated control
SW480 [16] = test: Inhibition of Wnt/beta-catenin signaling pathway in human SW480 cells assessed as Axin1 protein expression at 5 uM after 12 hrs by Western blotting analysis relative to vehicle-treated control
SW480 [17] = test: Inhibition of Wnt/beta-catenin signaling pathway in human SW480 cells assessed as Axin1 protein expression at 10 uM after 12 hrs by Western blotting analysis relative to vehicle-treated control
SW480 [18] = test: Inhibition of Wnt/beta-catenin signaling pathway in human SW480 cells assessed as Axin1 protein expression at 20 uM after 12 hrs by Western blotting analysis relative to vehicle-treated control
SW480 [19] = test: Inhibition of Wnt/beta-catenin signaling pathway in human SW480 cells assessed as Axin2 protein expression at 5 uM after 12 hrs by Western blotting analysis relative to vehicle-treated control
SW480 [20] = test: Inhibition of Wnt/beta-catenin signaling pathway in human SW480 cells assessed as beta-catenin protein expression at 10 uM after 24 hrs by Western blotting analysis relative to vehicle-treated control
SW480 [21] = test: Inhibition of Wnt/beta-catenin signaling pathway in human SW480 cells assessed as beta-catenin protein expression at 20 uM after 24 hrs by Western blotting analysis relative to vehicle-treated control
SW480 [22] = test: Inhibition of Wnt/beta-catenin signaling pathway in human SW480 cells assessed as phosphorylated (S45) beta-catenin protein expression at 5 uM after 24 hrs by Western blotting analysis relative to vehicle-treated control
SW480 [23] = test: Inhibition of Wnt/beta-catenin signaling pathway in human SW480 cells assessed as phosphorylated (S45) beta-catenin protein expression at 10 uM after 24 hrs by Western blotting analysis relative to vehicle-treated control
SW480 [24] = test: Inhibition of Wnt/beta-catenin signaling pathway in human SW480 cells assessed as phosphorylated (S45) beta-catenin protein expression at 20 uM after 24 hrs by Western blotting analysis relative to vehicle-treated control
SW480 [25] = test: Inhibition of Wnt/beta-catenin signaling pathway in human SW480 cells assessed as dvl1 protein expression at 5 uM after 24 hrs by Western blotting analysis relative to vehicle-treated control
SW480 [26] = test: Inhibition of Wnt/beta-catenin signaling pathway in human SW480 cells assessed as dvl1 protein expression at 20 uM after 24 hrs by Western blotting analysis relative to vehicle-treated control
SW480 [27] = test: Inhibition of Wnt/beta-catenin signaling pathway in human SW480 cells assessed as dvl2 protein expression at 5 uM after 24 hrs by Western blotting analysis relative to vehicle-treated control
SW480 [28] = test: Inhibition of Wnt/beta-catenin signaling pathway in human SW480 cells assessed as dvl3 protein expression at 20 uM after 24 hrs by Western blotting analysis relative to vehicle-treated control
SW480 [29] = test: Inhibition of Wnt/beta-catenin signaling pathway in human SW480 cells assessed as CK1-alpha protein expression at 5 uM after 24 hrs by Western blotting analysis relative to vehicle-treated control
SW480 [30] = test: Inhibition of Wnt/beta-catenin signaling pathway in human SW480 cells assessed as CK1-alpha protein expression at 20 uM after 24 hrs by Western blotting analysis relative to vehicle-treated control
SW480 [31] = test: Inhibition of Wnt/beta-catenin signaling pathway in human SW480 cells assessed as Axin1 protein expression at 5 uM after 24 hrs by Western blotting analysis relative to vehicle-treated control
SW480 [32] = test: Inhibition of Wnt/beta-catenin signaling pathway in human SW480 cells assessed as Axin1 protein expression at 20 uM after 24 hrs by Western blotting analysis relative to vehicle-treated control
SW480 [33] = test: Inhibition of Wnt/beta-catenin signaling pathway in human SW480 cells assessed as Axin2 protein expression at 5 uM after 24 hrs by Western blotting analysis relative to vehicle-treated control

COc1cc([C@H]2Oc3ccc(-c4cc(=O)c5c(O)cc(O)cc5o4)cc3O[C@@H]2CO)ccc1O (relative stereo)
fold change (FC) (SW480 [1]): 0.8
Activity (SW480 [2]): inactive
inhibition at 20 µM (HEK293): 61.6%
inhibition (SW480 [3]): Dose-dependent effect
fold change (FC) (SW480 [4]): 3.6
fold change (FC) (SW480 [5]): 1.2
fold change (FC) (SW480 [6]): 0.9
fold change (FC) (SW480 [7]): 1
fold change (FC) (SW480 [8]): 1
fold change (FC) (SW480 [9]): 1.1
fold change (FC) (SW480 [10]): 1.2
fold change (FC) (SW480 [11]): 0.8
growth inhibition (GI) (SW480 [12]): inactive
Activity [13]: Active
fold change (FC) (SW480 [14]): 1
fold change (FC) (SW480 [15]): 0.9
fold change (FC) (SW480 [16]): 1.9
fold change (FC) (SW480 [17]): 2.2
fold change (FC) (SW480 [18]): 2.7
fold change (FC) (SW480 [19]): 1
fold change (FC) (SW480 [20]): 0.8
fold change (FC) (SW480 [21]): 0.7
fold change (FC) (SW480 [22]): 1.4
fold change (FC) (SW480 [23]): 2.1
fold change (FC) (SW480 [24]): 2.4
fold change (FC) (SW480 [25]): 1
fold change (FC) (SW480 [26]): 1.2
fold change (FC) (SW480 [27]): 1.2
fold change (FC) (SW480 [28]): 1.1
fold change (FC) (SW480 [29]): 1.1
fold change (FC) (SW480 [30]): 1.1
fold change (FC) (SW480 [31]): 1.7
fold change (FC) (SW480 [32]): 4.2
fold change (FC) (SW480 [33]): 1.8
